Assays:
human PDGFRβ = target: T1, human PDGFRβ (Homo sapiens, UniProt P09619); assay: PDGF dependent cell proliferation (MTS); type: cell-based; conditions: PDGFRβ NIH-3T3 cells, PDGF BB 50 ng/ml, 72 hours, serum-free medium; read-out: GI50 nM (PDGF ligand-dependent cell proliferation)
T1 construct: expressed in transfected cells
Method: PDGF Dependent Cell Proliferation:
NIH-3T3 mouse fibroblasts cell line engineered to stably express human PDGFIRβ was constructed and used to evaluate PDGF dependent cell proliferation. PDGFRβ NIH-3T3 cells were plated into 96-well plates at 5,000 per well and incubated with serum-free medium for 24 hours. Compounds and PDGF BB (50 ng/ml) were added and incubated for 72 hours in serum-free medium. The effects on proliferation were determined by addition of MTS reagent (Promega) according to the instruction, incubation for 2 hours at 37° C. in CO2 incubator, and record the absorbance at 490 nm using an ELISA plate reader.

HUVEC cells = assay: VEGF dependent cell proliferation (MTS); type: cell-based; conditions: Homo sapiens, VEGF 165 50 ng/ml, 72 hours, serum-free medium, read-out: GI50 nM (VEGF ligand-dependent cell proliferation)
Method: VEGF Dependent Cell Proliferation:
HUVEC cells were plated into 96-well plates at 6,000 per well and incubated with serum-free medium for 2 hours. Compounds and VEGF 165 (50 ng/ml) were added and incubated for 72 hours in serum-free medium. The effects on proliferation were determined by addition of MTS reagent (Promega) according to the instruction, incubation for 2 hours at 37° C. in CO2 incubator, and record the absorbance at 490 nm using an ELISA plate reader.

[1] = system: total HDAC enzyme (HeLa extract); assay: In vitro inhibition of total HDAC enzyme activity (HDAC Fluorimetric Assay/Drug Discovery Kit); type: biochemical
Method: Measurement of In Vitro Inhibition of Total HDAC Enzyme Activity:
The in vitro inhibition of total HDAC enzyme was determined by HDAC Fluorimetric Assay/Drug Discovery Kit (BIOMOL) according to manufacture's instruction. • 1. Add Assay buffer, diluted trichostatin A or test inhibitor to appropriate wells of the microtiter plate. Following table lists examples of various assay types and the additions required for each test.
• 2. Add diluted HeLa extract or other HDAC sample to all wells except those that are to be “No Enzyme Controls” (Blank). • 3. Allow diluted Fluor de Lys™ Substrate and the samples in the microtiter plate to equilibrate to assay temperature (25° C.). • 4. Initiate HDAC reactions by adding diluted substrate (25 μl) to each well and mixing thoroughly. • 5. Allow HDAC reactions to proceed for desired length of time and then stop them by addition of Fluor de Lys™ Developer (50 μl). Incubate plate at room temperature (25° C.) for 10-15 min. • 6. Read samples in a microtiter-plate reading fluorimeter capable of excitation at a wavelength in the range 350-380 nm and detection of emitted light in the range 440-460 nm. Measurement of In Vivo Inhibition of HDAC Subtype Activity: […]

Class I HDAC = assay: P21 reporter gene assay in HeLa cells; type: cell-based; conditions: 24 hours
Method: HDAC subtype selectivity inhibition assay of tested compounds was carried out by several reporter gene assays experiments. Briefly, HeLa cells were seeded in 96-well plates the day before transfection to give a confluence of 50-80%. Cells were transfected with one of reporter gene plasmid containing a promoter sequence or response element upstream of a luciferase gene construct using FuGene6 transfection reagent according to the manufacturer's instruction (Roche). The promoters or response elements including p21-promoter was fused upstream to the luciferase gene reporter construct. For normalizing the transfection efficiency, a GFP expression plasmid was cotransfected. Cells were allowed to express protein for 24 hours followed by addition of individual compounds or the vehicle (DMSO). 24 hours later the cells were harvested, and the luciferase assay and GFP assay were performed using corresponding assay kits according to the manufacturer's instructions (Promega).

A-498 = assay: Tumor cell proliferation (MTS), A-498; type: cell-based; conditions: Homo sapiens, A498; 72 hours, complete medium
Method: (§1) Measurement of In Vivo Cell Proliferation:
(§2) Tumor cells were trypsinized and plated into 96-well plates at 3,000 per well and incubated in complete medium with 10% FBS for 24 hours. Compounds were added over a final concentration range of 100 μmol/L to 100 nmol/L in 0.1% DMSO and incubated for 72 hours in complete medium. The effects on proliferation were determined by addition of MTS reagent (Promega) according to the instruction, incubation for 2 hours at 37° C. in CO2 incubator, and record the absorbance at 490 nm using an ELISA plate reader.

A549 = assay: Tumor cell proliferation (MTS), A549; type: cell-based; conditions: Homo sapiens, 72 hours, complete medium
Method: as §1, §2
(§3) Human Cell Lines are Listed Below:
A549: Non small cell lung carcinoma

Bel-7402 = assay: Tumor cell proliferation (MTS), Bel-7402; type: cell-based; conditions: Homo sapiens, 72 hours, complete medium
Method: as §1, §2, §3
Bel-7402: Hepatocellular carcinoma

HCT-8 = assay: Tumor cell proliferation (MTS), HCT-8; type: cell-based; conditions: Homo sapiens, 72 hours, complete medium
Method: as §1, §2, §3
HCT-8: Ileocecal colorectal adenocarcinoma

MCF-7 = assay: Tumor cell proliferation (MTS), MCF-7; type: cell-based; conditions: Homo sapiens, MCF7; 72 hours, complete medium
Method: as §1, §2, §3
MCF-7: Mammary gland adenocarcinoma

[2] = system: human HCT-8 colon cancer xenograft; assay: Antitumor activity of compounds 33 and 34, HCT-8 xenograft (Example 54); type: in vivo, nu/nu mice
Method: (§4) The antitumor activity of compound 33 and compound 34 were measured in human HCT-8 colon cancer xenograft model. The female nu/nu mice of 18˜20 g were fed by normal diet for 3 days. Then the cultured HCT-8 human colon cancer cells were implanted into the armpit of 50 mice. When tumors had reached approximately 100 mm^3, the mice were divided into 6 groups randomly. Each group has 8 mice. One group was treated with vehicle. One group was treated with sutent, the positive control drug. Two groups were treated with compound 33. The other two groups were treated with compound 34. Each group was dosed orally once a day for 20 days. Tumor volumes as established by caliper measurements were recorded twice per week, along with body weights. At the end of study, the mice were killed, and tumors were weighed. The tumor growth inhibition of each group was calculated using the formula {[(the average tumor weight of vehicle group)−(the average tumor weight of drug group)]/(the average tumor weight of vehicle group)}×100%.

[3] = Body weight in HCT-8 xenograft study (Example 54); type: in vivo, nu/nu mice
Method: as §4

[4] = Body weight in HCT-8 xenograft study (Example 55); type: in vivo, nu/nu mice
Method: as §4, with “37” for “34”, “When tumors had reached approximately 100 mm^3, the mice were divided into 6 groups randomly. Each group has 8 mice.” left out, “37. Compound 33 was administered twice a day with an interval of 6 hours. Other drugs and vehicle were administered once a day.” for “34.”, “orally” for “orally once a day”

[5] = Body weight in SSMC7721 xenograft study (Example 56); type: in vivo, nu/nu mice
Method: The antitumor activity of compound 33 and compound 37 were measured in human SSMC7721 liver cancer xenograft model. The female nu/nu mice of 18˜20 g were fed by normal diet for 3 days. Then the cultured SSMC7721 human liver cancer cells were implanted into the armpit of 50 mice. […] Each group has 8 mice. One group was treated with vehicle. One group was treated with sutent, the positive control drug. Two groups were treated with compound 33. The other two groups were treated with compound 37. Each group was dosed orally once a day for 30 days. Tumor volumes as established by caliper measurements were recorded twice per week, along with body weights. At the end of study, the mice were killed, and tumors were weighed. The tumor growth inhibition of each group was calculated using the formula {[(the average tumor weight of vehicle group)−(the average tumor weight of drug group)]/(the average tumor weight of vehicle group)}×100%.

[6] = 30 mg/kg orally once a day for 20 days
[7] = 60 mg/kg orally once a day for 20 days
[8] = 30 mg/kg orally once a day for 30 days
[9] = 60 mg/kg orally once a day for 30 days

T1 sequence (P09619 33-1106): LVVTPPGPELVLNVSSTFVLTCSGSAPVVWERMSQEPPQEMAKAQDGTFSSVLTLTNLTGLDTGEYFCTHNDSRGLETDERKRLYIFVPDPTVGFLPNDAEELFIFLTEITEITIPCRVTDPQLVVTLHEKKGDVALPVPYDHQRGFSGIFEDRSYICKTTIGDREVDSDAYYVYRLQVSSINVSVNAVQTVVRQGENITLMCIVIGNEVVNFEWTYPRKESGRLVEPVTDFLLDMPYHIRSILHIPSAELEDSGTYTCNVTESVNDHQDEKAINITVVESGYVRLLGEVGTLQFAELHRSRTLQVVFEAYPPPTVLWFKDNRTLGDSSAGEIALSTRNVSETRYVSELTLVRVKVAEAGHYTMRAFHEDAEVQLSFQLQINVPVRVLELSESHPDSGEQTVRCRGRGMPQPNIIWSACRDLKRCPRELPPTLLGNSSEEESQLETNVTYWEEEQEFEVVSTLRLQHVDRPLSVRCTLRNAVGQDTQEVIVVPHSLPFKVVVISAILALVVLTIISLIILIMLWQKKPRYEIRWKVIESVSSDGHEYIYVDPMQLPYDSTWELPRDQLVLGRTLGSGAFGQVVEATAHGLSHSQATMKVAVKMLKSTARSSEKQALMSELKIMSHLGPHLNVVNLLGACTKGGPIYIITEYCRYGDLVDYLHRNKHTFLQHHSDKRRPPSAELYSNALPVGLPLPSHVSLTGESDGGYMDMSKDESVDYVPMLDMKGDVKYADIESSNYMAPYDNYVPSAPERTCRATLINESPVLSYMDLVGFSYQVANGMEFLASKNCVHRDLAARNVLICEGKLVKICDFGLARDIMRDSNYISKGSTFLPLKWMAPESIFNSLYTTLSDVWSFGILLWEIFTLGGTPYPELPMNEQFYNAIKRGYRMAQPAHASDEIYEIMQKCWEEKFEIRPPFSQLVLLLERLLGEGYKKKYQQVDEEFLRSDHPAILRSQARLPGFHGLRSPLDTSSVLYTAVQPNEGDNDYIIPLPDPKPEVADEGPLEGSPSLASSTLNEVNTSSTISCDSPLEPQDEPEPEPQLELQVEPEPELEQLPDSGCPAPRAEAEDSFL

GI50 (human PDGFRβ) | % inhibition of total HDAC enzyme activity at 30 μM [1] | Class I HDAC (P21 reporter assay) Fold Induction at 10 μM (Class I HDAC) | GI50 (A-498) | GI50 (A549) | GI50 (Bel-7402) | GI50 (HCT-8) | GI50 (MCF-7) | SMILES | GI50 (HUVEC cells) | further results
20 nM | 21.7% | 1.8 Fold | 7.5 µM | 8.3 µM | 17.3 µM | 6.6 µM | 15.9 µM | COc1ccc2c(Oc3ccc4c(C(=O)Nc5ccc(F)cc5N)cccc4c3)ccnc2c1 [Example 32, N-(2-amino-4-fluorophenyl)-6-(7-methoxyquinolin-4-yloxy)-1-naphthamide] | 2 nM | 
48 nM | 8.6% | 1.3 Fold | ≥ 30 µM | 30 µM | 30 µM | 12.3 µM | 30 µM | COc1cc2ncnc(Oc3ccc4c(C(=O)Nc5ccccc5N)cccc4c3)c2cc1OC [Example 16, N-(2-aminophenyl)-6-(6,7-dimethoxyquinazolin-4-yloxy)-1-naphthamide] | 3 nM | 
159 nM | 35.9% | 3.0 Fold | ≥ 30 µM | 30 µM | 30 µM | 30 µM | 30 µM | COc1cc2nccc(Oc3ccc4c(C(=O)NCc5ccc(C(=O)Nc6ccccc6N)cc5)cccc4c3)c2cc1OC [Example 37, N-(4-((2-aminophenyl)carbamoyl)benzyl)-6-(6,7-dimethoxyquinolin-4-yloxy)-1-naphthamide] | 4 nM | Body weight (g) end [4, 6]: 23.6 ± 2.2 g; Body weight (g) start [4, 6]: 20.6 ± 0.8 g; Body weight (g) end [4, 7]: 24.1 ± 2.1 g; Body weight (g) start [4, 7]: 20.8 ± 0.8 g; Body weight (g) end [5, 8]: 25.3 ± 0.9 g; Body weight (g) start [5, 8]: 20.7 ± 1.2 g; Body weight (g) end [5, 9]: 24.3 ± 1.1 g; Body weight (g) start [5, 9]: 21.4 ± 0.6 g

SMILES | GI50 (human PDGFRβ) | % inhibition of total HDAC enzyme activity at 30 μM [1] | Class I HDAC (P21 reporter assay) Fold Induction at 10 μM (Class I HDAC) | GI50 (A-498) | GI50 (A549) | GI50 (Bel-7402) | GI50 (HCT-8) | GI50 (MCF-7) | GI50 (HUVEC cells) | further results
COc1ccc2c(Oc3ccc4c(C(=O)NCc5ccc(C(=O)Nc6ccccc6N)cn5)cccc4c3)ccnc2c1 [Example 34] | 248 nM | 38.8% | 5.0 Fold | 7.9 µM | 11.2 µM | 17.7 µM | 5.5 µM | 5.2 µM | 90 nM | TGI (%) Tumor growth inhibition [2, 6]: 3.07%; Tumor weight [2, 6]: 3.95 ± 0.73 g; TGI (%) Tumor growth inhibition [2, 7]: 32.7%; Tumor weight [2, 7]: 2.74 ± 0.77 g; Body weight (g) end [3, 6]: 21.2 ± 1.9 g; Body weight (g) start [3, 6]: 19.7 ± 1.2 g; Body weight (g) end [3, 7]: 21.6 ± 2.3 g; Body weight (g) start [3, 7]: 19.6 ± 1.1 g

Reference: patent publication US8211901B2, “Naphthamide derivatives as multi-target protein kinase inhibitors and histone deacetylase inhibitors” (Shenzhen Chipscreen Biosciences Ltd., priority 2009, dated 2012)
